In patent US11566007B2, “Ras inhibitors” (Revolution Medicines, Inc., priority 2019, dated 2023):

Tests used:
KRAS G12D = KRAS G12D (Homo sapiens (Human), UniProt P01116+P62937, G12D); assay: Ras-Raf (BRAF RBD) disruption / FRET / MOA assay, KRAS G12D; type: biochemical; settings: Ras-Raf disruption/FRET/MOA assay; class symbols; read-out: KRAS G12D FRET data IC50
Procedure, shortened: (§1)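 Ras:RAF disruption was scored as a fall in TR-FRET ratio relative to DMSO. Compound ranged in 3-fold steps over 10 points from 30 μM final; incubation ran 3 h at 25° C, detection antibodies a further 1.5 h. Reported as IC50.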

KRAS WT = KRAS WT (Homo sapiens (Human), UniProt P01116+P62937); assay: Ras-Raf (BRAF RBD) disruption / FRET / MOA assay, KRAS WT; type: biochemical; settings: read-out: IC50* KRAS WT FRET data
Procedure, shortened: as §1

NCI-H358 (K-Ras G12C) = assay: CellTiter-Glo cell viability assay, NCI-H358; type: cell-based, human; settings: Homo sapiens, NCI-H358, 120 h, NCI-H358, 5-day treatment; class symbols; read-out: Additional H358 Cell Viability assay data (K-Ras G12C, IC50)
Procedure, shortened: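 Four-parameter logistic fits were applied to luminescence data normalized against DMSO-treated wells. Readings were taken on day 5 following direct compound addition, after roughly 30 minutes at room temperature.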

NRAS Q61K = NRAS Q61K (Homo sapiens (Human), UniProt P01111+P62937, Q61K); assay: Ras-Raf (BRAF RBD) disruption / FRET / MOA assay, NRAS Q61K; type: biochemical; settings: NRAS Q61K; Ras-Raf disruption/FRET/MOA assay; read-out: IC50* NRAS Q61K FRET data
Procedure, shortened: (§2)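 TR-FRET disruption of nucleotide-loaded Ras binding to BRAF RBD via compound-driven ternary complex with cyclophilin A. Compound as 10-point 3-fold series from 30 μM final, 3 h at 25° C, then anti-His Eu-W1024 (10 nM) and anti-GST allophycocyanin (50 nM) for 1.5 h. IC50 from decreased FRET ratio versus DMSO.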

KRAS G12S = KRAS G12S (Homo sapiens (Human), UniProt P01116+P62937, G12S); assay: Ras-Raf (BRAF RBD) disruption / FRET / MOA assay, KRAS G12S; type: biochemical; settings: Ras-Raf disruption/FRET/MOA assay; class symbols; read-out: KRAS G12S FRET data IC50
Procedure, shortened: as §1

NRAS Q61R = NRAS Q61R (Homo sapiens (Human), UniProt P01111+P62937, Q61R); assay: Ras-Raf (BRAF RBD) disruption / FRET / MOA assay, NRAS Q61R; type: biochemical; settings: NRAS Q61R; Ras-Raf disruption/FRET/MOA assay; read-out: IC50* NRAS Q61R FRET data
Procedure, shortened: as §2

KRAS G12V = KRAS G12V (Homo sapiens (Human), UniProt P01116+P62937, G12V); assay: Ras-Raf (BRAF RBD) disruption / FRET / MOA assay, KRAS G12V; type: biochemical; settings: read-out: IC50* KRAS G12V FRET data
Procedure, shortened: as §1

K-Ras G13C = K-Ras G13C (Homo sapiens (Human), UniProt P01116+P62937, G13C); assay: Ras-Raf (BRAF RBD) disruption / FRET / MOA assay, KRAS G13C; type: biochemical; settings: KRAS G13C; Ras-Raf disruption/FRET/MOA assay; read-out: IC50* KRAS G13C FRET data
Procedure, shortened: as §1

KRAS Q61H = KRAS Q61H (Homo sapiens (Human), UniProt P01116+P62937, Q61H); assay: Ras-Raf (BRAF RBD) disruption / FRET / MOA assay, KRAS Q61H; type: biochemical; settings: Ras-Raf disruption/FRET/MOA assay; class symbols; read-out: KRAS Q61H FRET data IC50
Procedure, shortened: as §2

NRAS G12C = NRAS G12C (Homo sapiens (Human), UniProt P01111+P62937, G12C); assay: Ras-Raf (BRAF RBD) disruption / FRET / MOA assay, NRAS G12C; type: biochemical; settings: read-out: IC50* NRAS G12C FRET data
Procedure, shortened: as §1

NRAS WT = NRAS WT (Homo sapiens (Human), UniProt P01111+P62937); assay: Ras-Raf (BRAF RBD) disruption / FRET / MOA assay, NRAS WT; type: biochemical; settings: read-out: IC50* NRAS WT FRET data
Procedure, shortened: as §2

KRAS G13D = KRAS G13D (Homo sapiens (Human), UniProt P01116+P62937, G13D); assay: Ras-Raf (BRAF RBD) disruption / FRET / MOA assay, KRAS G13D; type: biochemical; settings: read-out: IC50* KRAS G13D FRET data
Procedure, shortened: as §1

NRAS Q61R, sequence (P01111 whole entry Q61R): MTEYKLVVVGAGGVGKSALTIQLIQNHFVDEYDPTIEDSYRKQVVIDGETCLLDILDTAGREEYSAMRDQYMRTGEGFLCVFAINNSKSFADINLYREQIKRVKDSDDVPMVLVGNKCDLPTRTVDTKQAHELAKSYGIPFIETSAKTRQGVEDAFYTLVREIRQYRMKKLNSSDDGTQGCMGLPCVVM
NRAS Q61R, sequence (P62937 whole entry): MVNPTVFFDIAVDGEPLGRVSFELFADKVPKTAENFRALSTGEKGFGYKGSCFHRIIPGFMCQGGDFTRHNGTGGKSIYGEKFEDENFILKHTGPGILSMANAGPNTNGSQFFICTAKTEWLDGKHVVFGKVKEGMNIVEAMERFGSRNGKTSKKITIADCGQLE
NRAS G12C, sequence (P01111 whole entry G12C): as the sequence (P01111 whole entry Q61R) above, with G12C, R61Q counted along it
NRAS G12C, sequence (P62937 whole entry): as the sequence (P62937 whole entry) above
KRAS Q61H, sequence (P01116-2 other isoform, or with tags, fused parts or gaps Q61H): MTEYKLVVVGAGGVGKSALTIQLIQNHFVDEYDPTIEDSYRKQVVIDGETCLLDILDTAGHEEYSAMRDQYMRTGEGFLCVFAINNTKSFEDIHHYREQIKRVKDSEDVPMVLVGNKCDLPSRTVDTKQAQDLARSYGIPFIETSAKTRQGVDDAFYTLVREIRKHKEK
KRAS Q61H, sequence (P62937 whole entry): as the sequence (P62937 whole entry) above
KRAS G12V, sequence (P01116-2 other isoform, or with tags, fused parts or gaps G12V): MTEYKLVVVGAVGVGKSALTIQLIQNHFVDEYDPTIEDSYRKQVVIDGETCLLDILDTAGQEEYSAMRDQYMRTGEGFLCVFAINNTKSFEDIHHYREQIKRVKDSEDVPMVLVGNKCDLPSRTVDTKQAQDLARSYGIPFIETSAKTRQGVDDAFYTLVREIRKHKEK
KRAS G12V, sequence (P62937 whole entry): as the sequence (P62937 whole entry) above
KRAS G12S, sequence (P01116-2 other isoform, or with tags, fused parts or gaps G12S): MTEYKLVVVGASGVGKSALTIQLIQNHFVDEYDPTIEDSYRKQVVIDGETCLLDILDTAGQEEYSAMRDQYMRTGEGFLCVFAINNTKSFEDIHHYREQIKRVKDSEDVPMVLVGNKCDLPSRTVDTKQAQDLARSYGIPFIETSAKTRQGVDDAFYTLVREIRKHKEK
KRAS G12S, sequence (P62937 whole entry): as the sequence (P62937 whole entry) above
NRAS WT, sequence (P01111 whole entry): as the sequence (P01111 whole entry Q61R) above, with R61Q counted along it
NRAS WT, sequence (P62937 whole entry): as the sequence (P62937 whole entry) above
K-Ras G13C, sequence (P01116-2 other isoform, or with tags, fused parts or gaps G13C): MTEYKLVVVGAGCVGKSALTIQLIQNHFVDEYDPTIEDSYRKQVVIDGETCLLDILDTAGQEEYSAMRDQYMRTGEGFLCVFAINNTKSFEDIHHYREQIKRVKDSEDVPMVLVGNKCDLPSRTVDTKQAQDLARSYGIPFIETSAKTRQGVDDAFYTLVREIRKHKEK
K-Ras G13C, sequence (P62937 whole entry): as the sequence (P62937 whole entry) above
KRAS G13D, sequence (P01116-2 other isoform, or with tags, fused parts or gaps G13D): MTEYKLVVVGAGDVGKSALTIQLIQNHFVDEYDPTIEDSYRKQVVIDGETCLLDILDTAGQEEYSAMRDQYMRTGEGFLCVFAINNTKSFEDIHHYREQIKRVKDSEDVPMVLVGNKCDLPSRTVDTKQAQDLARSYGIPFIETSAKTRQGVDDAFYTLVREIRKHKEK
KRAS G13D, sequence (P62937 whole entry): as the sequence (P62937 whole entry) above
NRAS Q61K, sequence (P01111 whole entry Q61K): as the sequence (P01111 whole entry Q61R) above, with R61K counted along it
NRAS Q61K, sequence (P62937 whole entry): as the sequence (P62937 whole entry) above
KRAS WT, sequence (P01116-2 other isoform, or with tags, fused parts or gaps): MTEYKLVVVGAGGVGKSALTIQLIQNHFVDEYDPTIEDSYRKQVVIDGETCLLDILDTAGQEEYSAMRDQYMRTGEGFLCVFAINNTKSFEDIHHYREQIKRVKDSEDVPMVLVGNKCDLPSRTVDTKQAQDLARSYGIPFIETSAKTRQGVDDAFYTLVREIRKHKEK
KRAS WT, sequence (P62937 whole entry): as the sequence (P62937 whole entry) above
KRAS G12D, sequence (P01116-2 other isoform, or with tags, fused parts or gaps G12D): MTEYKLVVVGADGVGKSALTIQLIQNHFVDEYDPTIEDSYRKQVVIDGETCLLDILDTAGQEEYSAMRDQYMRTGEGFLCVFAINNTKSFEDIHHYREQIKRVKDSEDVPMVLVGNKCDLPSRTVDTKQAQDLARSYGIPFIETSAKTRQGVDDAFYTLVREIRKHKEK
KRAS G12D, sequence (P62937 whole entry): as the sequence (P62937 whole entry) above

| Structure (SMILES) | IC50 (KRAS G12D) | IC50 (KRAS WT) | IC50 (NCI-H358 (K-Ras G12C)) | IC50 (NRAS Q61K) | IC50 (KRAS G12S) | IC50 (NRAS Q61R) | IC50 (KRAS G12V) | IC50 (K-Ras G13C) | IC50 (KRAS Q61H) | IC50 (NRAS G12C) | IC50 (NRAS WT) | IC50 (KRAS G13D) |
| --- | --- | --- | --- | --- | --- | --- | --- | --- | --- | --- | --- | --- |
| C=CC(=O)N1CC2(CCN2C(=O)N(C)[C@H](C(=O)N[C@H]2Cc3nc(cs3)-c3ccc4c(c3)c(c(-c3cccnc3[C@H](C)OC)n4CC)CC(C)(C)COC(=O)[C@@H]3CCCN(N3)C2=O)C(C)C)C1 (atropisomer, axis not shown) [Example A407] | 100 to 1000 nM | 100 to 1000 nM | < 10 nM | 10 to 100 nM | 100 to 1000 nM | 10 to 100 nM | 100 to 1000 nM | 100 to 1000 nM | 10 to 100 nM | < 10 nM | 10 to 100 nM | 100 to 1000 nM |
| CCn1c(-c2cccnc2[C@H](C)OC)c2c3cc(ccc31)-c1cccc(c1)C[C@H](NC(=O)[C@H](C(C)C)N(C)C(=O)C1(F)CCN(C(=O)/C=C/CN(C)C)CC1)C(=O)N1CCC[C@H](N1)C(=O)OCC(C)(C)C2 (atropisomer, axis not shown) [Example A685] | 100 to 1000 nM | 100 to 1000 nM | < 10 nM | 100 to 1000 nM | 100 to 1000 nM | 100 to 1000 nM | 100 to 1000 nM | 100 to 1000 nM | 100 to 1000 nM | 10 to 100 nM | 100 to 1000 nM | 100 to 1000 nM |
| C=CC(=O)N1CCO[C@H]2CN(C(=O)N(C)[C@H](C(=O)N[C@H]3C[C@H]4CN(CCO4)c4ccc5c(c4)c(c(-c4cccnc4[C@H](C)OC)n5CC)CC(C)(C)COC(=O)[C@@H]4CCCN(N4)C3=O)C(C)C)C[C@H]21 [Example A562] | 1000 to 10000 nM | 1000 to 10000 nM | 100 to 1000 nM | 1000 to 10000 nM | 1000 to 10000 nM | > 10000 nM | 1000 to 10000 nM | 100 to 1000 nM | 1000 to 10000 nM | 100 to 1000 nM | 1000 to 10000 nM | 1000 to 10000 nM |
| CCn1c(-c2cccnc2[C@H](C)OC)c2c3cc(ccc31)N1CCO[C@@H](C[C@H](NC(=O)[C@H](C(C)C)N(C)C(=O)C3(F)CCN(C(=O)C#CC(C)(C)N(C)C)CC3)C(=O)N3CCC[C@H](N3)C(=O)OCC(C)(C)C2)C1 (atropisomer, axis not shown) [Example A647, 1-(4-(dimethylamino)-4-methylpent-2-ynoyl)-N-((2S)-1-(((2^2S,6^3S,4S)-1^1-ethyl-1^2-(2-((S)-1-methoxyethyl)pyridin-3-yl)-10,10-dimethyl-5,7-dioxo-6^1,6^2,6^3,6^4,6^5,6^6-hexahydro-1^1H-8-oxa-2(4,2)-morpholina-1(5,3)-indola-6(1,3)-pyridazinacycloundecaphane-4-yl)amino)-3-methyl-1-oxobutan-2-yl)-4-fluoro-N-methylpiperidine-4-carboxamide] | 1000 to 10000 nM | 100 to 1000 nM | < 10 nM | 1000 to 10000 nM | 1000 to 10000 nM | 1000 to 10000 nM | 1000 to 10000 nM | 100 to 1000 nM | 1000 to 10000 nM | < 10 nM | 100 to 1000 nM | 1000 to 10000 nM |
| CCn1c(-c2cccnc2[C@H](C)OC)c2c3cc(ccc31)-c1cccc(n1)C[C@H](NC(=O)[C@H](C(C)C)N(C)C(=O)N1CCC13CN(C(=O)C#CC(C)(C)N(C)C)C3)C(=O)N1CCC[C@H](N1)C(=O)OCC(C)(C)C2 (atropisomer, axis not shown) [Example A623] | 1000 to 10000 nM | 1000 to 10000 nM | 10 to 100 nM | 100 to 1000 nM | 1000 to 10000 nM | 1000 to 10000 nM | 1000 to 10000 nM | 1000 to 10000 nM | 100 to 1000 nM | 100 to 1000 nM | 1000 to 10000 nM | 1000 to 10000 nM |
| CO[C@@H](C)c1ncccc1-c1c2c3cc(ccc3n1CC(F)(F)F)-c1cccc(c1)C[C@H](NC(=O)[C@H](C(C)C)N(C)C(=O)[C@H]1CCN(C(=O)C#CC(C)(C)N(C)C)C1)C(=O)N1CCC[C@H](N1)C(=O)OCC(C)(C)C2 (atropisomer, axis not shown) [Example A727] | 1000 to 10000 nM | 1000 to 10000 nM | < 10 nM | 1000 to 10000 nM | 1000 to 10000 nM | 1000 to 10000 nM | 1000 to 10000 nM | 100 to 1000 nM | 1000 to 10000 nM | < 10 nM | 1000 to 10000 nM | 1000 to 10000 nM |
| C=CC(=O)N1C[C@@H]2CN(C(=O)N(C)[C@H](C(=O)N[C@H]3Cc4nc(cs4)-c4ccc5c(c4)c(c(-c4cccnc4[C@H](C)OC)n5CC)CC(C)(C)COC(=O)[C@@H]4CCCN(N4)C3=O)C(C)C)[C@@H]2C1 (atropisomer, axis not shown) [Example A561] | 1000 to 10000 nM | 1000 to 10000 nM | 100 to 1000 nM | 100 to 1000 nM | 1000 to 10000 nM | 1000 to 10000 nM | 1000 to 10000 nM | 100 to 1000 nM | 100 to 1000 nM | 100 to 1000 nM | 1000 to 10000 nM | 1000 to 10000 nM |
| CO[C@@H](C)c1ncccc1-c1c2c3cc(ccc3n1CC(F)(F)F)-c1cccc(c1)C[C@H](NC(=O)[C@@H](COC1CN(C(=O)C#CC3(C)OCCO3)C1)C(C)C)C(=O)N1CCC[C@H](N1)C(=O)OCC(C)(C)C2 (atropisomer, axis not shown) [Example A703] | > 10000 nM | 1000 to 10000 nM | 10 to 100 nM | > 10000 nM | > 10000 nM | > 10000 nM | 1000 to 10000 nM | 1000 to 10000 nM | 1000 to 10000 nM | 10 to 100 nM | 1000 to 10000 nM | > 10000 nM |
